Experimental data published in the supplement of paper PMC5908809.

How the values were obtained:
[1] = system: normal NK cells expanded with K562-aAPC; test: percent inhibition of viability; higher = more inhibition; conditions: 72 h, IL-2 2.5 ng/mL
Experimental: (§1)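 Drug sensitivity and resistance testing on K562-aAPC-expanded normal NK cells: 5 concentrations (10-fold steps over a 10,000-fold range), 72 h at 37 °C, viability by CellTiter-Glo normalised to DMSO and benzethonium chloride controls; DSS from the fitted curve.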

DERL-7 (IL-2 2.5 ng/mL) [2] = test: as above; conditions: 72 h
IMC-1 (IL-2 20 ng/mL) [3] = test: as above; conditions: 72 h
KAI3 (IL-2 2.5 ng/mL) [4] = test: as above; conditions: 72 h
KHYG-1 (IL-2 2.5 ng/mL) [5] = test: as above; conditions: 72 h
NK-92 (IL-2 2.5 ng/mL) [6] = test: as above; conditions: 72 h
NK-YS (IL-2 2.5 ng/mL) [7] = test: as above; conditions: 72 h
NKL (IL-2 2.5 ng/mL) [8] = test: as above; conditions: 72 h
SNK-6 (IL-2 2.5 ng/mL) [9] = test: as above; conditions: 72 h
YT (IL-2 2.5 ng/mL) [10] = test: as above; conditions: 72 h
[11] = system: normal primary NK cells, pool 1 (3 donors) (IL-2 2.5 ng/mL); test: as above; conditions: 72 h
[12] = system: normal primary NK cells, pool 1 (3 donors), resting (IL-2 0 ng/mL); test: as above; conditions: 72 h
[13] = system: normal primary NK cells, pool 2 (3 donors) (IL-2 2.5 ng/mL); test: as above; conditions: 72 h
[14] = system: normal primary NK cells, pool 3 (3 donors) (IL-2 2.5 ng/mL); test: as above; conditions: 72 h
[15] = system: normal NK cells expanded with K562-aAPC; test: drug sensitivity score (DSS) (DSS units); higher = more sensitive; extreme values may be limits of the assay; conditions: 72 h; IL-2 2.5 ng/mL
Experimental: as §1

DERL-7 (IL-2 2.5 ng/mL) [16] = test: as above; conditions: 72 h
IMC-1 (IL-2 20 ng/mL) [17] = test: as above; conditions: 72 h
KAI3 (IL-2 2.5 ng/mL) [18] = test: as above; conditions: 72 h
KHYG-1 (IL-2 2.5 ng/mL) [19] = test: as above; conditions: 72 h
NK-92 (IL-2 2.5 ng/mL) [20] = test: as above; conditions: 72 h
NK-YS (IL-2 2.5 ng/mL) [21] = test: as above; conditions: 72 h
NKL (IL-2 2.5 ng/mL) [22] = test: as above; conditions: 72 h
SNK-6 (IL-2 2.5 ng/mL) [23] = test: as above; conditions: 72 h
YT (IL-2 2.5 ng/mL) [24] = test: as above; conditions: 72 h
[25] = system: normal primary NK cells, pool 1 (3 donors) (IL-2 2.5 ng/mL); test: as above; conditions: 72 h
[26] = system: normal primary NK cells, pool 1 (3 donors), resting (IL-2 0 ng/mL); test: as above; conditions: 72 h
[27] = system: normal primary NK cells, pool 2 (3 donors) (IL-2 2.5 ng/mL); test: as above; conditions: 72 h
[28] = system: normal primary NK cells, pool 3 (3 donors) (IL-2 2.5 ng/mL); test: as above; conditions: 72 h

CC[C@@H]1C(=O)OC[C@@H]1Cc1cncn1C [Pilocarpine] (max concentration tested 40000 nM)
percent inhibition of viability [%]
Conditions | 4 nM | 40 nM | 400 nM | 4000 nM | 40000 nM
DERL-7 (IL-2 2.5 ng/mL) [2] | 1.42 | -1.75 | 0.14 | 2.27 | -9.94
IMC-1 (IL-2 20 ng/mL) [3] | 0.9 | 2.74 | 3.37 | 7.24 | 10.8
KAI3 (IL-2 2.5 ng/mL) [4] | -4.19 | -2.59 | -0.69 | 0.97 | 10.8
KHYG-1 (IL-2 2.5 ng/mL) [5] | -5.1 | 0.26 | 0.29 | 8.1 | 13.5
NK-92 (IL-2 2.5 ng/mL) [6] | -3.6 | -6.46 | -0.49 | 3.22 | 17.6
NK-YS (IL-2 2.5 ng/mL) [7] | -0.26 | 2 | 1.94 | 9.78 | 16
NKL (IL-2 2.5 ng/mL) [8] | 0.76 | -2.78 | 1.71 | 1.49 | 4.41
SNK-6 (IL-2 2.5 ng/mL) [9] | 7.63 | 1.2 | 25.3 | 7.63 | 17.4
YT (IL-2 2.5 ng/mL) [10] | 0.63 | -1.77 | 4.55 | 7.37 | 12.4
[1] | -3.76 | -0.92 | 0.04 | 4.29 | 9.84
[11] | -1.79 | 4.63 | -1.46 | 6 | 3.9
[12] | 2.62 | 11.3 | -11.4 | 2.11 | -5.32
[13] | -4.81 | -4.05 | -0.5 | 4.72 | -5.35
[14] | -10.7 | -14.3 | -6.23 | 1.83 | -3.82

Conditions | drug sensitivity score
DERL-7 (IL-2 2.5 ng/mL) [16] | 0
IMC-1 (IL-2 20 ng/mL) [17] | 0
KAI3 (IL-2 2.5 ng/mL) [18] | 0.01
KHYG-1 (IL-2 2.5 ng/mL) [19] | 0.51
NK-92 (IL-2 2.5 ng/mL) [20] | 0.79
NK-YS (IL-2 2.5 ng/mL) [21] | 0.76
NKL (IL-2 2.5 ng/mL) [22] | 0
SNK-6 (IL-2 2.5 ng/mL) [23] | 0
YT (IL-2 2.5 ng/mL) [24] | 0.14
[15] | 0
[25] | 0
[26] | 0
[27] | 0
[28] | 0

Nc1ncnc2c1nc(Cl)n2[C@@H]1O[C@H](CO)[C@@H](O)[C@H]1O [8-chloro-adenosine] (max concentration tested 50000 nM)
percent inhibition of viability [%]
Conditions | 5 nM | 50 nM | 500 nM | 5000 nM | 50000 nM
DERL-7 (IL-2 2.5 ng/mL) [2] | -0.76 | -2.87 | 38.2 | 96.9 | 101
IMC-1 (IL-2 20 ng/mL) [3] | -4.61 | -4.66 | -2.73 | -11.7 | 66.7
KAI3 (IL-2 2.5 ng/mL) [4] | -13.1 | -12.4 | 38.3 | 86.7 | 92.9
KHYG-1 (IL-2 2.5 ng/mL) [5] | -6.84 | -4.5 | 1.43 | 75.4 | 94
NK-92 (IL-2 2.5 ng/mL) [6] | -20.2 | -17.7 | 8.7 | 44.5 | 64
NK-YS (IL-2 2.5 ng/mL) [7] | -8.76 | -5.07 | 22.4 | 73.6 | 92.2
NKL (IL-2 2.5 ng/mL) [8] | -21.8 | -24.6 | -10.7 | 40.7 | 75.6
SNK-6 (IL-2 2.5 ng/mL) [9] | 21.5 | 20.6 | 46.5 | 92.8 | 96.9
YT (IL-2 2.5 ng/mL) [10] | -2.82 | -1.05 | 1.56 | 66.9 | 72.2
[1] | -0.51 | -6.13 | 2.57 | 35.4 | 73
[11] | -2.27 | -6.47 | -3.95 | 30.1 | 77.2
[12] | -17.2 | -29.2 | -19.8 | 36.1 | 78.2
[13] | -8.69 | 0.94 | 1.41 | 28 | 71.1
[14] | -18.1 | -3.17 | -4.4 | 17.3 | 57.7

Conditions | drug sensitivity score
DERL-7 (IL-2 2.5 ng/mL) [16] | 22.6
IMC-1 (IL-2 20 ng/mL) [17] | 2.97
KAI3 (IL-2 2.5 ng/mL) [18] | 21.9
KHYG-1 (IL-2 2.5 ng/mL) [19] | 14
NK-92 (IL-2 2.5 ng/mL) [20] | 9.34
NK-YS (IL-2 2.5 ng/mL) [21] | 16.3
NKL (IL-2 2.5 ng/mL) [22] | 9.19
SNK-6 (IL-2 2.5 ng/mL) [23] | 23.8
YT (IL-2 2.5 ng/mL) [24] | 12.5
[15] | 8.27
[25] | 8.37
[26] | 8.97
[27] | 7.63
[28] | 5.7

Cc1[nH]c2ccccc2c1CCNCc1ccc(/C=C/C(=O)NO)cc1 [Panobinostat] (max concentration tested 1000 nM)
percent inhibition of viability [%]
Conditions | 0.1 nM | 1 nM | 10 nM | 100 nM | 1000 nM
DERL-7 (IL-2 2.5 ng/mL) [2] | -11.8 | -4.71 | 36.5 | 100 | 100
IMC-1 (IL-2 20 ng/mL) [3] | -2.07 | -6.63 | 2.44 | 100 | 100
KAI3 (IL-2 2.5 ng/mL) [4] | 4.1 | 14.2 | 61.8 | 101 | 101
KHYG-1 (IL-2 2.5 ng/mL) [5] | -7.12 | -8.38 | 22.6 | 101 | 101
NK-92 (IL-2 2.5 ng/mL) [6] | -5.27 | -2.71 | 34 | 98.1 | 101
NK-YS (IL-2 2.5 ng/mL) [7] | -8.83 | -9.94 | 19.8 | 97.1 | 98.8
NKL (IL-2 2.5 ng/mL) [8] | -1.46 | 1.8 | 61.1 | 101 | 100
SNK-6 (IL-2 2.5 ng/mL) [9] | -14.8 | 4.53 | 31.4 | 98.9 | 99.6
YT (IL-2 2.5 ng/mL) [10] | 0.21 | -1.12 | 12.8 | 101 | 98.4
[1] | 0.2 | 2.99 | 33.4 | 99.8 | 99.8
[11] | 0.27 | -4.7 | 33.9 | 97 | 97.5
[12] | -10.7 | 2.83 | 67 | 89.2 | 90.8
[13] | -7.26 | -4.93 | 64.8 | 94.5 | 94.9
[14] | -7.01 | -2.67 | 31.6 | 97.8 | 98.5

Conditions | drug sensitivity score
DERL-7 (IL-2 2.5 ng/mL) [16] | 23
IMC-1 (IL-2 20 ng/mL) [17] | 18.3
KAI3 (IL-2 2.5 ng/mL) [18] | 26
KHYG-1 (IL-2 2.5 ng/mL) [19] | 21.6
NK-92 (IL-2 2.5 ng/mL) [20] | 22.5
NK-YS (IL-2 2.5 ng/mL) [21] | 21
NKL (IL-2 2.5 ng/mL) [22] | 25.2
SNK-6 (IL-2 2.5 ng/mL) [23] | 22.1
YT (IL-2 2.5 ng/mL) [24] | 20.1
[15] | 22.6
[25] | 22.3
[26] | 24.6
[27] | 24.6
[28] | 22.3
